Assay results as given in PubChem BioAssay AID328 (DTP/NCI, 2004).
Values joined by “and” are separate entries in the source; they are usually repeats but may differ in a detail not shown here. Equal entries are not always repeated. Inconclusive results and toxic doses are left out.

Tested on: BDF1 mice, P388 leukemia ip, median survival T/C
Experiment: NCI In Vivo Anticancer Drug Screen. Data for tumor model P388 Leukemia (intraperitoneal) in B6D2F1 (BDF1) mice
Conditions: endpoint: median survival time, higher = longer survival
How it was run: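 Read-out is survival of treated animals expressed relative to the vehicle group, as a T/C ratio.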

[1] = dose: 100.0 mg/kg/injection, schedule: Q01DX009 (ip), vehicle: Klucel (hydroxypropylcellulose) (HPC)
[2] = dose: 400.0 mg/kg/injection, schedule: Q01DX009 (ip), vehicle: Klucel (hydroxypropylcellulose) (HPC)
[3] = dose: 100.0 mg/kg/injection, schedule: Q01DX009 (ip), vehicle: saline with Tween-80
[4] = dose: 6.25 mg/kg/injection, schedule: Q04DX003 (ip), vehicle: water
[5] = dose: 12.5 mg/kg/injection, schedule: Q04DX003 (ip), vehicle: water
[6] = dose: 25.0 mg/kg/injection, schedule: Q04DX003 (ip), vehicle: water
[7] = dose: 100.0 mg/kg/injection, schedule: Q04DX003 (ip), vehicle: saline with Tween-80
[8] = dose: 200.0 mg/kg/injection, schedule: Q04DX003 (ip), vehicle: saline with Tween-80
[9] = dose: 400.0 mg/kg/injection, schedule: Q04DX003 (ip), vehicle: saline with Tween-80
[10] = dose: 100.0 mg/kg/injection, schedule: Q01DX001 (ip), vehicle: saline sonified

For COC(OC)c1[nH]c(=S)[nH]c(=O)c1Cc1cccc(Cl)c1, the T/C (dose: 100.0 mg/kg/injection, schedule: Q01DX001 (ip), vehicle: Klucel (hydroxypropylcellulose) (HPC)) was 109 % of control, the T/C [1] was 122 % of control and the T/C (dose: 100.0 mg/kg/injection, schedule: Q04DX003 (ip), vehicle: Klucel (hydroxypropylcellulose) (HPC)) was 113 % of control. The T/C (dose: 200.0 mg/kg/injection, schedule: Q01DX001 (ip), vehicle: Klucel (hydroxypropylcellulose) (HPC)) was 104 % of control, the T/C (dose: 200.0 mg/kg/injection, schedule: Q04DX003 (ip), vehicle: Klucel (hydroxypropylcellulose) (HPC)) was 100 % of control and the T/C (dose: 400.0 mg/kg/injection, schedule: Q01DX001 (ip), vehicle: Klucel (hydroxypropylcellulose) (HPC)) was 104 % of control. For the same compound, the T/C [2] was 100 % of control and the T/C (dose: 400.0 mg/kg/injection, schedule: Q04DX003 (ip), vehicle: Klucel (hydroxypropylcellulose) (HPC)) was 95 % of control.
O=C(/C=C/c1ccc(Cl)cc1)NCC(O)CO (stereo not given) was tested, and the T/C (dose: 400.0 mg/kg/injection, schedule: Q01DX009 (ip), vehicle: water) was 91 % of control.
COc1ccc2c(c1)CCC1C2=CC(=O)/C1=C\[O-].COc1ccc2c(c1)CCC1C2=CC(=O)/C1=C\[O-].[Cu+2] (stereo not given) was tested, and the T/C (dose: 12.5 mg/kg/injection, schedule: Q04DX003 (ip), vehicle: saline with Tween-80) was 113 % of control and the T/C (dose: 25.0 mg/kg/injection, schedule: Q04DX003 (ip), vehicle: saline with Tween-80) was 109 % of control.
C[Si](C)(C)O/C=C1\CCCCC1=O was tested, and the T/C (dose: 25.0 mg/kg/injection, schedule: Q01DX009 (ip), vehicle: saline with Tween-80) was 110 % of control and the T/C [3] was 117 % of control.
In the case of CC1=Cc2ccc(C)cc2C(=O)C1=O, the T/C (dose: 3.13 mg/kg/injection, schedule: Q01DX009 (ip), vehicle: Klucel (hydroxypropylcellulose) (HPC)) is reported as 102 % of control and the T/C (dose: 6.25 mg/kg/injection, schedule: Q01DX009 (ip), vehicle: Klucel (hydroxypropylcellulose) (HPC)) is reported as 108 % of control.
With C/C=C1\CCC2C(=C1C)CC1C2CC=C2CC(OC(C)=O)CCC21C (stereo not given) the T/C [1] was 115 % of control, the T/C (dose: 200.0 mg/kg/injection, schedule: Q01DX009 (ip), vehicle: Klucel (hydroxypropylcellulose) (HPC)) was 120 % of control and the T/C [2] was 105 % of control.
In the case of NC(N)=Nc1ccc(C(=O)Oc2c(Cl)cc([N+](=O)[O-])cc2Cl)cc1, the T/C (dose: 0.18 mg/kg/injection, schedule: Q01DX009 (ip), vehicle: saline) is reported as 94 % of control, the T/C (dose: 0.39 mg/kg/injection, schedule: Q01DX009 (ip), vehicle: saline) is reported as 92 % of control and the T/C (dose: 0.78 mg/kg/injection, schedule: Q01DX009 (ip), vehicle: saline) is reported as 96 % of control. For the same compound, the T/C (dose: 1.56 mg/kg/injection, schedule: Q01DX009 (ip), vehicle: saline) was 102 % of control, the T/C (dose: 3.12 mg/kg/injection, schedule: Q01DX009 (ip), vehicle: saline) was 86 % of control and the T/C (dose: 50.0 mg/kg/injection, schedule: Q04DX003 (ip), vehicle: saline) was 95 % of control. The T/C (dose: 100.0 mg/kg/injection, schedule: Q04DX003 (ip), vehicle: saline) was 113 % of control.
With C#CC(c1ccccc1)(c1ccccc1)n1ccnc1 the T/C (dose: 50.0 mg/kg/injection, schedule: Q01DX009 (ip), vehicle: saline with Tween-80) was 98 % of control, the T/C [3] was 100 % of control and the T/C (dose: 200.0 mg/kg/injection, schedule: Q01DX009 (ip), vehicle: saline with Tween-80) was 98 % of control.
In the case of O=C1C=C(Cl)C(=O)C2=C1CCCC2, the T/C (dose: 0.39 mg/kg/injection, schedule: Q04DX002 (ip), vehicle: saline) is reported as 92 % of control, the T/C (dose: 0.78 mg/kg/injection, schedule: Q04DX002 (ip), vehicle: saline) is reported as 97 % of control and the T/C (dose: 1.56 mg/kg/injection, schedule: Q04DX002 (ip), vehicle: saline with Tween-80) is reported as 96 % of control. The T/C (dose: 1.56 mg/kg/injection, schedule: Q04DX002 (ip), vehicle: saline) was 101 % of control.
For CC(=O)Nc1ccc2nc3ccc(NC(C)=O)cc3[n+](-c3ccccc3)c2c1, the T/C (dose: 31.3 mg/kg/injection, schedule: Q01DX010 (ip), vehicle: saline) was 168 % of control, the T/C (dose: 62.5 mg/kg/injection, schedule: Q01DX010 (ip), vehicle: saline) was 172 % of control and the T/C (dose: 125.0 mg/kg/injection, schedule: Q01DX010 (ip), vehicle: saline) was 181 % of control. For the same compound, the T/C (dose: 250.0 mg/kg/injection, schedule: Q01DX010 (ip), vehicle: saline) was 150 % of control.
In the case of c1ccc2c(c1)Sc1ccccc1N2CCCN1CCCC1, the T/C (dose: 6.25 mg/kg/injection, schedule: Q01DX009 (ip), vehicle: saline) is reported as 104 % of control, the T/C (dose: 12.5 mg/kg/injection, schedule: Q01DX009 (ip), vehicle: saline) is reported as 104 % of control and the T/C (dose: 25.0 mg/kg/injection, schedule: Q01DX009 (ip), vehicle: saline) is reported as 122 % of control.
CC(C)=NNC(=O)C1CCN1Cc1ccccc1 (stereo not given) was tested, and the T/C (dose: 50.0 mg/kg/injection, schedule: Q01DX001 (ip), vehicle: saline) was 102 % of control, the T/C (dose: 100.0 mg/kg/injection, schedule: Q01DX001 (ip), vehicle: saline) was 98 % of control and the T/C (dose: 200.0 mg/kg/injection, schedule: Q01DX001 (ip), vehicle: saline) was 93 % of control. For the same compound, the T/C (dose: 400.0 mg/kg/injection, schedule: Q01DX001 (ip), vehicle: saline) was 102 % of control.
COc1cc2ccncc2cc1O was tested, and the T/C (dose: 3.13 mg/kg/injection, schedule: Q04DX003 (ip), vehicle: water) was 97 % of control, the T/C [4] was 97 % of control and the T/C [5] was 94 % of control. The T/C [6] was 94 % of control and the T/C (dose: 50.0 mg/kg/injection, schedule: Q04DX003 (ip), vehicle: water) was 101 % of control.
CCCC#CCOCC(O)CCl (stereo not given) was tested, and the T/C (dose: 100.0 mg/kg/injection, schedule: Q01DX009 (ip), vehicle: saline) was 104 % of control, the T/C [7] was 104 % of control and the T/C (dose: 200.0 mg/kg/injection, schedule: Q01DX009 (ip), vehicle: saline) was 109 % of control. For the same compound, the T/C [8] was 108 % of control.
O=C1NC(=O)C(c2ccc(O)cc2)N1 (stereo not given) was tested, and the T/C [7] was 100 % of control, the T/C [8] was 109 % of control and the T/C [9] was 118 % of control.
In the case of Nc1nc(N)c2cc(N3CCCC3c3ccc(Cl)c(Cl)c3)ccc2n1 (stereo not given), the T/C (dose: 0.78 mg/kg/injection, schedule: Q01DX009 (ip), vehicle: water) is reported as 110 % of control, the T/C (dose: 1.56 mg/kg/injection, schedule: Q01DX009 (ip), vehicle: water) is reported as 117 % of control and the T/C (dose: 3.12 mg/kg/injection, schedule: Q01DX009 (ip), vehicle: water) is reported as 113 % of control. The T/C (dose: 3.12 mg/kg/injection, schedule: Q04DX003 (ip), vehicle: water) was 104 % of control and 109 % of control, the T/C (dose: 6.25 mg/kg/injection, schedule: Q01DX009 (ip), vehicle: water) was 119 % of control and the T/C [4] was 110 % of control and 116 % of control. For the same compound, the T/C [5] was 108 % of control and 114 % of control, the T/C (dose: 20.0 mg/kg/injection, schedule: Q04DX003 (ip), vehicle: water) was 111 % of control and the T/C [6] was 116 % of control.
In the case of CCOC(=O)CCC(NC(=O)c1ccc2c(c1)CCCN2C=O)C(=O)OCC (stereo not given), the T/C (dose: 25.0 mg/kg/injection, schedule: Q01DX001 (ip), vehicle: saline sonified) is reported as 100 % of control, the T/C (dose: 50.0 mg/kg/injection, schedule: Q01DX001 (ip), vehicle: saline sonified) is reported as 100 % of control and the T/C [10] is reported as 100 % of control.
CCCCC1C(=O)OC(C(C)C(O)CCCN=C(N)N)C(C)C=C(C)CCCCC(O)CC(O)CC(O)CC(O)CC(O)C(OC2OC(CO)C(O)C2O)C=C(C)C(O)CCCC(O)CCCC(O)CCC(C)C1O (stereo not given) was tested, and the T/C (dose: 0.3 mg/kg/injection, schedule: Q01DX010 (ip), vehicle: carboxymethylcellulose (CMC)) was 90 % of control, the T/C (dose: 0.6 mg/kg/injection, schedule: Q01DX010 (ip), vehicle: carboxymethylcellulose (CMC)) was 90 % of control and the T/C (dose: 1.2 mg/kg/injection, schedule: Q01DX010 (ip), vehicle: carboxymethylcellulose (CMC)) was 95 % of control. The T/C (dose: 2.5 mg/kg/injection, schedule: Q01DX010 (ip), vehicle: carboxymethylcellulose (CMC)) was 90 % of control.
In the case of CC1=C2C(=O)c3ccccc3C2=C(C)S(=O)(=O)O1, the T/C (dose: 50.0 mg/kg/injection, schedule: Q01DX009 (ip), vehicle: carboxymethylcellulose (CMC)) is reported as 119 % of control, the T/C (dose: 100.0 mg/kg/injection, schedule: Q01DX009 (ip), vehicle: carboxymethylcellulose (CMC)) is reported as 90 % of control and the T/C [7] is reported as 122 % of control.
In the case of CC1(C)N=C(N)Nc2nnc(-c3cccc(Cl)c3)n21, the T/C [10] is reported as 105 % of control, the T/C (dose: 200.0 mg/kg/injection, schedule: Q01DX001 (ip), vehicle: saline sonified) is reported as 100 % of control and the T/C (dose: 400.0 mg/kg/injection, schedule: Q01DX001 (ip), vehicle: saline sonified) is reported as 100 % of control.
CCCCc1[nH]nc2c1C(=O)C(Nc1ccccc1)=CC2=O was tested, and the T/C [7] was 103 % of control, the T/C [8] was 100 % of control and the T/C [9] was 100 % of control.
